Square brackets hold non-standard residues; d marks the D form. Ends that are not written are not given here. * marks the point of attachment. Farnesyl = CC(C)=CCC/C(C)=C/CC/C(C)=C/C*; Palmitoyl = CCCCCCCCCCCCCCCC(=O)*; Dapaa = not defined here; Dapdi = not defined here; Dab = NCC[C@H](N)C(=O)O; Dap = NC[C@H](N)C(=O)O; Kh = not defined here; bi = not defined here; Aib = CC(C)(N)C(=O)O
What was measured:
HEK 293T/17 cells = experiment: Cellular delivery of QDs, intracellular fate by fluorescence microscopy; conditions: for disruption of endosomes: with QD-CPP, 2-3 h, highest concentrations (500 mM sucrose or 500 μM chloroquine)
Procedure: Human embryonic kidney (HEK 293T/17) and African green monkey kidney (COS-1) cell lines (ATCC, Manassas, Va.) were cultured in complete growth medium (Dulbecco's Modified Eagle's Medium (DMEM; purchased from ATCC)) supplemented with 1% (v/v) antibiotic/antimycotic and 10% (v/v) heat inactivated fetal bovine serum (ATCC). Cells were cultured in T-25 flasks and incubated at 37° C. under 5% CO2 atmosphere and a subculture was performed every 3-4 days (see reference 13).
The QD delivery experiments were performed on adherent cells seeded into the wells of Lab-Tek 8-well chambered #1 borosilicate coverglass (Nalge Nunc, Rochester, N.Y.) coated with 2 μg/mL fibronectin. For electroporation and nucleofection, adherent cells were harvested by trypsinization prior to performing QD delivery to cells in suspension. Cells were then seeded to chambered coverglass wells and imaged after cell attachment. The endosomal marker AlexaFluor647-transferrin was included as indicated in the text. For imaging, cells were washed with phosphate buffered saline (PBS, 137 mM NaCl, 10 mM phosphate, 3 mM KCl, pH 7.4), fixed with 3.7% paraformaldehyde in PBS and nuclei were stained with DAPI (Sigma) unless otherwise indicated.
For electroporation, cells were harvested by trypsinization and recovered for 1 hour in complete growth medium, pelleted, and resuspended in PBS. 510 nm DHLA-PEG QDs (0.5 μM final concentration) were mixed with 1×10^4 cells to a final volume of 100 μL in PBS in a 0.2 mm electroporation cuvette. The cuvette was subjected to 100 V for a 20 ms pulse using a GenePulser XCell electroporator (Bio-Rad, Hercules, Calif.). Cells were resuspended in complete growth medium, seeded into fibronectin-coated 8-well chambered coverglass, fixed and imaged after 24 hrs. For nucleofection delivery, 1×10^6 cells were harvested and resuspended in 100 μL of NUCLEOFECTOR reagent (Amaxa, Gaithersburg, Md.). 510 nm DHLA-PEG QDs were included at a final concentration of 0.4 μM. The cell/QD/reagent mixture was pulsed in the NUCLEOFECTOR using a preset protocol adapted for each specific cell line (20, 21). Cells were cultured and imaged as described for electroporation.
The INFLUX cell-loading reagent mediates the intracellular release of materials internalized via pinocytic vesicles by delivering the materials to cells in a hypertonic medium followed by the transfer of the cells to a hypotonic medium to induce vesicle disruption (see reference 22). 510 nm DHLA-PEG QDs were diluted to a final concentration of 300-800 nM in the supplied hypertonic delivery media according to manufacturer's instructions and incubated on the cells for 30 min at 37° C. The hypertonic medium was exchanged for hypotonic medium (serum-free culture medium diluted by 40% with deionized water) and incubated on the cells for 3 min. The cells were then recovered in complete growth medium for 30 min and cultured for various lengths of time prior to washing and fixation for imaging.
520 nm QDs with a 1:1 mixed surface of DHLA:DHLA-PEG were incubated with LIPOFECTAMINE 2000 for 20 min in serum free medium at a ratio of 1 μL LIPOFECTAMINE 2000 per 1.5 pmol QD. The complexes, at a final QD concentration of 75 nM, were incubated with the cells for 4 hours, removed and replaced with complete growth medium. The cells were then cultured for 24-36 h prior to washing and fixation.
PEI was incubated with 520 nm mixed surface DHLA:DHLA-PEG QDs in serum free medium at a ratio of 10 μg PEI per 1 pmol QD for 15 min. […] The complexes were then diluted into serum free media to a final QD concentration of 75-100 nM, incubated with cells for 2 h and removed. Cells were then cultured in complete media for 24-36 h, washed and fixed.
A stock solution of 520 nm DHLA:DHLA-PEG QDs (1 μM in 0.1 M borate buffer, pH 8.9) was diluted to 0.5 μM in HEPES (4-(2-hydroxyethyl)-1-piperazineethanesulfonic acid, pH 8.2).

COS-1 cells = experiment: Cellular uptake and endosomal escape of QD-peptide assemblies, fluorescence microscopy; type: cell-based, African green monkey; conditions: for % Escape in cells with uptake: QD-peptide assemblies; for Overall uptake/escape: uptake: first word of the cell; for Overall uptake/escape: escape: second word of the cell; for intracellular distribution of QD-peptide assemblies: COS-1, 1 hr incubation, 24 hr culture
Procedure: Merged images were generated using Adobe PhotoShop.
The peptide assemblies were incubated with COS-1 cells for 1 hr, removed, and the cells were subsequently cultured for 24 hr prior to fixation. An AlexaFluor 647-transferrin (Tf) conjugate was included during the incubation to label the vesicles of the endocytic pathway. Cell nuclei were stained with DAPI.

Molecule	% Escape in cells with uptake (COS-1 cells; COS1 cells) [%]	Overall uptake/escape: uptake (COS-1 cells; COS1 cells)	Overall uptake/escape: escape (COS-1 cells; COS1 cells)	further results
CCN(CC)CCCC(C)Nc1ccnc2cc(Cl)ccc12 (stereo not drawn) [chloroquine]				Toxicity (HEK 293T/17 cells): significant cellular toxicity and morbidity; disruption of endosomes (HEK 293T/17 cells): efficiently disrupted the endosomes
O=C(O)CCCc1ccc2ccc3cccc4ccc1c2c34 [pyrenebutyrate]				intracellular distribution of QDs (HEK 293T/17 cells; HEK 293T/17, endosomal marker AlexaFluor 647-transferrin): no cytosolic dispersal was observed
OC[C@H]1O[C@@](CO)(O[C@H]2O[C@H](CO)[C@@H](O)[C@H](O)[C@H]2O)[C@@H](O)[C@@H]1O [sucrose]				Toxicity (HEK 293T/17 cells): significant cellular toxicity and morbidity; disruption of endosomes (HEK 293T/17 cells): efficiently disrupted the endosomes
(H)6GG(P)9VKIKKDapaGW (HHHHHHGGPPPPPPPPPVKIKK[Dap](Palmitoyl)GW) [JB860]	60	Moderate	moderate	
(H)6GG(P)9WGDapaVKIKK (HHHHHHGGPPPPPPPPPWG[Dap](Palmitoyl)VKIKK) [JB859]	17	Moderate	low	
AcG(Pal)DapVKIKK P9GG H6 (Ac-G[Dap](Palmitoyl)VKIKKPPPPPPPPPGGHHHHHH) [Palm-1b]				intracellular distribution of QD-peptide assemblies (COS-1 cells): largely well dispersed throughout the cytoplasm
AcG(Pal)DapVKIKKGLAAAAGG H6 (Ac-G[Dap](Palmitoyl)VKIKKGLAAAAGGHHHHHH) [Palm-2b]				intracellular distribution of QD-peptide assemblies (COS-1 cells): nearly entirely sequestered within endosomes
AcG(Pal)DapVKIKKGLAPAAGG H6 (Ac-G[Dap](Palmitoyl)VKIKKGLAPAAGGHHHHHH) [Palm-3b]				intracellular distribution of QD-peptide assemblies (COS-1 cells): nearly entirely sequestered within endosomes
KETWWETWWTEWSQPKKKRKVSGAibAAAGG(H)6 (KETWWETWWTEWSQPKKKRKVSG[Aib]AAAGGHHHHHH) [JB719, Chariot peptide, reference compound]	43	Moderate	moderate	
KhGDapaVKIKK(P)9GG(H)6 ([Kh]G[Dap](Palmitoyl)VKIKKPPPPPPPPPGGHHHHHH; reading uncertain; also: N-terminal modifications) [JB867]				QD/TAMRA colocalized (integrity) (COS-1 cells; COS1 cells, printed in the % QD uptake column): >90%
VKIKKWGDapa(P)9GG(H)6 (VKIKKWG[Dap](Palmitoyl)PPPPPPPPPGGHHHHHH) [JB862]	9	Low	low	
WGCcVKIKK(P)9GG(H)6 [JB589]	50	Low	moderate	
WGCgVKIKK(P)9GG(H)6 (WGC(Farnesyl)VKIKKPPPPPPPPPGGHHHHHH; not fully specified) [JB872]	79	High	high	
WGDabaVKIKK(P)9GG(H)6 (WG[Dab](Palmitoyl)VKIKKPPPPPPPPPGGHHHHHH) [JB858]				% QD uptake (n), result in words (COS-1 cells; COS1 cells, cell continues in r20 'localized'): Membrane
WGDapVKIKK(P)9GG(H)6 (WG[Dap]VKIKKPPPPPPPPPGGHHHHHH) [JB579]	29	Low	low	
WGDapVRL(P)3VRL(P)3VRL(P)3GG(H)6 (WG[Dap]VRLPPPVRLPPPVRLPPPGGHHHHHH) [JB868]	18	Moderate	low	
WGDapVRRRIRR(P)9GG(H)6 (WG[Dap]VRRRIRRPPPPPPPPPGGHHHHHH) [JB585]	25	Low	low	

Molecule	% Escape in cells with uptake (COS-1 cells; COS1 cells) [%]	Overall uptake/escape: uptake (COS-1 cells; COS1 cells)	Overall uptake/escape: escape (COS-1 cells; COS1 cells)	further results
WGDapa(P)9GG(H)6 (WG[Dap](Palmitoyl)PPPPPPPPPGGHHHHHH) [JB578]	46	Low	moderate	
WGDapaGDapaVKIKK(P)9GG(H)6 (WG[Dap](Palmitoyl)G[Dap](Palmitoyl)VKIKKPPPPPPPPPGGHHHHHH) [JB580]	92	Low	high	
WGDapaRRRIRR(P)9GGK [JB588]	85	High	high	
WGDapaVKIKK(Aib)9GG(H)6 (WG[Dap](Palmitoyl)VKIKK[Aib][Aib][Aib][Aib][Aib][Aib][Aib][Aib][Aib]GGHHHHHH) [JB747]	58	High	moderate	
WGDapaVKIKK(P)4GG(H)6 (WG[Dap](Palmitoyl)VKIKKPPPPGGHHHHHH) [JB582]		None	none	
WGDapaVKIKK(P)9GGKb [JB728]	93	High	high	
WGDapaVKIKK(P)12GG(H)6 (WG[Dap](Palmitoyl)VKIKKPPPPPPPPPPPPGGHHHHHH) [JB865]	68	High	moderate	
WGDapaVKIKK(P)15GG(H)6 (WG[Dap](Palmitoyl)VKIKKPPPPPPPPPPPPPPPGGHHHHHH) [JB864]	85	High	high	
WGDapaVRL(P)3VRL(P)3VRL(P)3GG(H)6 (WG[Dap](Palmitoyl)VRLPPPVRLPPPVRLPPPGGHHHHHH) [JB869]	55	High	moderate	
WGDapaVRRRIRR(P)9GG(H)6 (WG[Dap](Palmitoyl)VRRRIRRPPPPPPPPPGGHHHHHH) [JB583]	41	Low	moderate	
WGDapaaVKIKK(P)9GG(H)6 (WG[Dapaa]VKIKKPPPPPPPPPGGHHHHHH; reading uncertain) [JB866]	11	Moderate	low	
WGDapdiVKIKK(P)9GG(H)6 (WG[Dapdi]VKIKKPPPPPPPPPGGHHHHHH; reading uncertain) [JB641]	88	Moderate	high	
WGDapeVKIKK(P)9GG(H)6 [JB729]	84	High	high	
WGDapfVKIKK(P)9GG(H)6 [SI09160]	96	Moderate	high	
WdGDapdiVKIKK(P)9GG(H)6 [JB621]	90	Low	high	
biKWGSAibAAALGG(R)10 (bi-KWGS[Aib]AAALGGRRRRRRRRRR; reading uncertain) [JB722, Dye labeled cell penetrating peptide, reference compound]	1	Low	low	
